{"source": "patent US11266715B2", "about": "“C3A receptor agonists for use against ischemic brain injury, stroke, traumatic brain injury, spinal cord injury and neurodegenerative disorders” (priority 2016, dated 2022)", "system": "mice subjected to neonatal HI injury", "assay": "Cue-induced fear conditioning after neonatal HI injury, 7 days intranasal treatment", "type": "in vivo, mouse", "method": "In the long-term study (7 days of intranasal treatment), […] of wild-type (WT) and C3aR^−/− mice subjected to neonatal HI injury and treated with either C3a or PBS were used; WT HI-C3a (n=5), WT HI-PBS (n=8), C3aR^−/− HI-C3a (n=7), C3aR^−/− HI-PBS (n=8). These mice were tested in a cue-induced fear conditioning test at P50 and brains were collected at P51 (FIG. 7A).\nNeonatal HI injury was induced on postnatal day 9 (P9), as previously described with modifications for mice (Hedtjärn et al., 2002; Rice et al., 1981; Sheldon et al., 1998). Mice were anesthetized with 3.5% isoflurane (Baxter Medical, Kista, Sweden) for induction and 1.5% thereafter, in 1:1 oxygen and nitrous oxide. The left common carotid artery was dissected and permanently ligated with a prolene suture (6.0). […]\nCue-induced fear conditioning with a shock-paired tone and light cue was performed on P49 and P50 as previously described (Järlestedt et al., 2011). […] Freezing behaviour, a defensive response to a perceived threat, was defined as a complete lack of movement and quantified by scoring freezing behaviour (on video footage) as present or absent once every 10 s for 2 min. […] On P50, animals were again placed in the conditioning box and freezing behaviour was measured for 2 min. Following this, the shock-paired tone and light were presented for 30 s and freezing behaviour was then measured again for 2 min. […]"}
{"substance": "C3a: Purified human C3a peptide (Complement Technologies), C3a receptor agonist, amino acid sequence SEQ ID NO: 1", "values": [{"measurement": "extent of freezing, C3a vs PBS", "setting": "C3aR−/− mice, same protocol", "result": "did not differ"}, {"measurement": "freezing behavior after the conditioned cue vs HI PBS-treated mice", "setting": "WT mice, intranasal C3a once daily 7 days from 1 h after HI, p<0.05", "result": "significantly increased freezing behavior"}]}
